Entries after “also recorded” stand apart in the source; their conditions may differ.
Legend:
HT-22 cells = experiment: Cytoprotection of HT-22 cells against glutamate exposure (calcein AM cell viability); format: cell-based, Mouse; conditions: for activity compared with 4c and 4e: at 10 μM; for cytoprotection (result in words): tested at 0.01-10 μM; for neuroprotection: at 10 μM and 1 μM
Procedure: Mouse clonal hippocampal HT-22 cells were cultured in DMEM media supplemented with 10% fetal bovine serum under standard cell culture conditions. All wells in the 96 well culture plate contained approximately 5,000 HT-22 cells as determined by a Neubauer hemacytometer and the cells were incubated for 24 hrs before the compounds were added. The estradiol derivatives were purified recrystallization or column chromatography and were free from (1) as determined by HPLC. All agents were dissolved in absolute ethanol and diluted, with the culture media, to a final concentration of 0.01 μM; 0.1 μM; 1.0 μM; and 10 μM in their respective wells. The cells were further incubated for 24 hrs before sodium glutamate in a solution of phosphate buffer was added. Cell viability was quantified 2 hrs later by the calcein AM assay (Green, P. S., E. J.Perez, T. Calloway and J. W. Simpkins: (2000), Journal of Neurocytology, Vol. 29, pp. 419-423) in a phosphate buffer solution.
ANOVA was used to determine the significance of differences among groups. Comparison between groups were done using the Tukey test. Ap<0.05 was considered significant.

ERα = molecular target: T1, ERα (Homo sapiens, UniProt P03372); experiment: Estrogen receptor binding, displacement of radiolabeled 17β-estradiol; parameters: dose or concentration left out as unconfirmed; conditions: human cloned ERα, 17β-estradiol assigned 1; <0.01 = no evidence of binding
T1 sequence (P03372 1-595): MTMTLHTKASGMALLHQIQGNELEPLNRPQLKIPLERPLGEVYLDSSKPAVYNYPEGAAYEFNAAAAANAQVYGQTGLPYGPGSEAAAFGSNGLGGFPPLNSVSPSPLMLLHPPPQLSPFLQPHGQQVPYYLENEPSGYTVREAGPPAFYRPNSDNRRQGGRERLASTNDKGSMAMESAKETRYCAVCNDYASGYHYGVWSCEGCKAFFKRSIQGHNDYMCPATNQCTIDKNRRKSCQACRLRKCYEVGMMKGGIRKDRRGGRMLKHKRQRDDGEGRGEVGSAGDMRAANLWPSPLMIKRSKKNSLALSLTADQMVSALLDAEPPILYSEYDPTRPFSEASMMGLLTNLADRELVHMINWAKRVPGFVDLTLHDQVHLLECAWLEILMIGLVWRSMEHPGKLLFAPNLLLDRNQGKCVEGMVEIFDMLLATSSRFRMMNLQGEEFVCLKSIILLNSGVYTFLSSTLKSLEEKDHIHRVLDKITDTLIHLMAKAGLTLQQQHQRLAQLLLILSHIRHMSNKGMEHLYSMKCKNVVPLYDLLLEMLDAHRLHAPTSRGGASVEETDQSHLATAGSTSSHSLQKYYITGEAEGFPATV

ERβ = ERβ (Homo sapiens, UniProt Q92731); experiment: Estrogen receptor binding, displacement of radiolabeled 17β-estradiol; parameters: dose or concentration left out as unconfirmed; conditions: human cloned ERβ, 17β-estradiol assigned 1; <0.01 = no evidence of binding
ERβ, sequence (Q92731 whole entry): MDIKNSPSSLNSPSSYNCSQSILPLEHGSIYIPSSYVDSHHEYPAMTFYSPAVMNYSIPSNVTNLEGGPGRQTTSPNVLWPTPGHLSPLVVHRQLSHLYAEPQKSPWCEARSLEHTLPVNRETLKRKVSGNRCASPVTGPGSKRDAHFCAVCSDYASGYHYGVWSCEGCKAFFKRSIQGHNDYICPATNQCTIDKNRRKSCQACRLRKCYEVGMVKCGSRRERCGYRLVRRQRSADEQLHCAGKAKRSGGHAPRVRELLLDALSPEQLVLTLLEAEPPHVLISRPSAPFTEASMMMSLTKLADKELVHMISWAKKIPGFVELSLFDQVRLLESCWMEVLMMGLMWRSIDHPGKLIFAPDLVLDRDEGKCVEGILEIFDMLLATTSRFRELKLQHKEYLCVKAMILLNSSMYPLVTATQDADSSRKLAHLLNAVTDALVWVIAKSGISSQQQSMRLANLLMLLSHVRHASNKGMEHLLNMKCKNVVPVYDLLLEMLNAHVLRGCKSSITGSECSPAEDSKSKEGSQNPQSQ

Row | SMILES | cytoprotection (result in words) (HT-22 cells) | ERα BINDING (Relative to E2) (ERα) | melting point | other results
1 | C[C@]12CC[C@@H]3c4ccc(O)cc4CC[C@H]3[C@@H]1CC[C@@H]2O [Compound 1, 17β-estradiol, reference compound] | effective only at 10 μM |  |  | activity compared with 4c and 4e (HT-22 cells): less active then 4c and 4e
2 | CO[C@H]1CC[C@H]2[C@@H]3CCc4cc(O)ccc4[C@H]3CC[C@]12C [Compound 4a, 17β-Methoxyestra-1,3,5(10)-trien-3-ol] | inactive; also recorded: ineffective even at 10 μM |  |  | activity compared with 4c and 4e (HT-22 cells): less active then 4c and 4e; cytoprotection (result in words) (HT-22 cells; listed as 17β-methylestradiol): effective only at 10 μM
3 | CCO[C@H]1CC[C@H]2[C@@H]3CCc4cc(O)ccc4[C@H]3CC[C@]12C [Compound 4b, 17β-Ethoxyestra-1,3,5(10)-trien-3-ol] |  | <0.01 |  | 
4 | CCCO[C@H]1CC[C@H]2[C@@H]3CCc4cc(O)ccc4[C@H]3CC[C@]12C [Compound 4c, 17β-Propoxyestra-1,3,5(10)-trien-3-ol] |  | <0.01 |  | 
5 | CCCCO[C@H]1CC[C@H]2[C@@H]3CCc4cc(O)ccc4[C@H]3CC[C@]12C [Compound 4d, 17β-Butoxyestra-1,3,5(10)-trien-3-ol] |  |  | 77 to 81 °C | 
6 | CCCCCCO[C@H]1CC[C@H]2[C@@H]3CCc4cc(O)ccc4[C@H]3CC[C@]12C [Compound 4e, 17β-Hexyloxyestra-1,3,5(10)-trien-3-ol] | active |  |  | neuroprotection (HT-22 cells): neuroprotective to a similar extent
7 | CCCCCCCCO[C@H]1CC[C@H]2[C@@H]3CCc4cc(O)ccc4[C@H]3CC[C@]12C [Compound 4f, 17β-Octyloxyestra-1,3,5(10)-trien-3-ol] |  | <0.01 |  | ERβ BINDING (Relative to E2) (ERβ): <0.01; neuroprotection (HT-22 cells): neuroprotective to a similar extent
8 | CCCCOc1ccc2c(c1)CC[C@@H]1[C@@H]2CC[C@]2(C)[C@@H](O)CC[C@@H]12 [Compound 5b, 3-Butoxyestra-1,3,5(10)-trien-17β-ol] | ineffective |  | 86 to 88 °C | 
9 | CCCCCCCCOc1ccc2c(c1)CC[C@@H]1[C@@H]2CC[C@]2(C)[C@@H](O)CC[C@@H]12 [Compound 5c, 3-Octyloxyestra-1,3,5(10)-trien-17β-ol] | ineffective |  | 64 to 66 °C | 

Reference: US20020035100A1, “Alkyl ether modified polycyclic compounds having a terminal phenol and uses for protection of cells” (priority 2000, published 2002)
